Test: Example 2: HPLC analysis of oligosaccharides, fructose isomers and lactose at pH 6 and 7 over aseptic filling and room temperature storage
Format: physicochemical
Method: Oligosaccharides 2′Fucosyllactose (2′FL) and Lacto-N-neotetraose (LNnT) were mixed in a 10:1 ratio (w/w) and dissolved in water to a final concentration of 10% (w/v). Out of this solution, […] samples were generated respectively having pH 6 and 7 (by addition of KOH) Such samples were subjected to heat treatment (UHT) followed by aseptic filling of small monodose bottles. Solutions at different pHs were analysed before and after filling of bottles as well as after different times of storage at room temperature (21-26° C.). Analysis was done by HPLC using a TSK gel Amide-80 (150 mm×4.6 mm, particle size: 3 μm) column and detection via a charged aerosol detector. F or 2′FL (FIG. 2a), LNnT (FIG. 2d), the fructose isomers of the added 2′FL (indicated as FL lactulose in the graphs, FIG. 2d) and of added LNnT (indicated as LNnT isomer in the graphs, FIG. 2e) as well as for their degradation products (lactose, FIG. 2c). The pH of the solution was also measured. All data are expressed as % of added oligosaccharides.

## CC(=O)N[C@H]1[C@H](O[C@H]2[C@@H](O)[C@@H](CO)O[C@@H](O[C@H]3[C@H](O)[C@@H](O)C(O)O[C@@H]3CO)[C@@H]2O)O[C@H](CO)[C@@H](O[C@@H]2O[C@H](CO)[C@H](O)[C@H](O)[C@H]2O)[C@@H]1O (mixture of isomers) [LNnT, lacto-N-neotetraose]
pH 6, compared with pH 7
  LNnT isomers formation: much lower
pH 6, UHT, aseptic filling, storage at 21-26° C., 2′FL:LNnT 10:1, 10% w/v
  oligosaccharide amounts at aseptic filling and over time: much more stable

From patent US20220016144A1, “STABLE AQUEOUS COMPOSITION COMPRISING OLIGOSACCHARIDES” (SOCIETE DES PRODUITS NESTLE S.A., priority 2018, published 2022)
